# Measured values published in patent US6632799B2, “Injectable ready-to-use solutions containing an antitumor anthracycline glycoside” (Pharmacia & Upjohn Company, priority 1985, dated 2003).
# Where a name gives a salt, the structure may show the parent alone.
# Experiments:
# [1] = Shelf-life (t 90%) forecast of doxorubicin.HCl 2 mg/ml 0.9% sodium chloride solution adjusted to pH 3.0; type: physicochemical; conditions: for Kobs × 10^3: observed
# Description: The Arrhenius equation for the degradation process was calculated from the Kobs obtained from the different temperatures taken in account for the testing (table 13).
# [2] = Shelf-life (t 90%) forecast of doxorubicin.HCl 2 mg/ml solution in 5% dextrose adjusted to pH 3.0; type: physicochemical; conditions: for Kobs × 10^3: observed
# Description: Applying the equation, the rate constants for the pseudo-first order reactions at 4° C., 8° C., and 15° C. and 27° C. were calculated, together with the expected t90% at these temperatures.
# [3] = 0.9% NaCl pH 3.0, 27° C., Arrhenius
# [4] = 0.9% sodium chloride pH 3.0, 35° C., 0 days
# [5] = 0.9% sodium chloride pH 3.0, 35° C., 8 days
# [6] = 0.9% sodium chloride pH 3.0, 35° C., 14 days
# [7] = 0.9% sodium chloride pH 3.0, 35° C., 21 days
# [8] = 0.9% sodium chloride pH 3.0, 35° C., 28 days
# [9] = 0.9% sodium chloride pH 3.0, 45° C., 0 days
# [10] = 0.9% sodium chloride pH 3.0, 45° C., 4 days
# [11] = 0.9% sodium chloride pH 3.0, 45° C., 8 days
# [12] = 0.9% sodium chloride pH 3.0, 45° C., 21 days
# [13] = 0.9% sodium chloride pH 3.0, 55° C., 0 days
# [14] = 0.9% sodium chloride pH 3.0, 55° C., 11 days
# [15] = 0.9% sodium chloride pH 3.0, 60° C., 0 days
# [16] = 0.9% sodium chloride pH 3.0, 60° C., 1 day
# [17] = 0.9% sodium chloride pH 3.0, 60° C., 3 days
# [18] = 5% dextrose pH 3.0, 35° C., 4 days
# [19] = 5% dextrose pH 3.0, 35° C., 8 days
# [20] = 5% dextrose pH 3.0, 35° C., 14 days
# [21] = 5% dextrose pH 3.0, 35° C., 17 days
# [22] = 5% dextrose pH 3.0, 35° C., 21 days
# [23] = 5% dextrose pH 3.0, 45° C., 4 days
# [24] = 5% dextrose pH 3.0, 45° C., 8 days
# [25] = 5% dextrose pH 3.0, 45° C., 14 days
# [26] = 5% dextrose pH 3.0, 45° C., 21 days
# [27] = 5% dextrose pH 3.0, 55° C., 17 days
# [28] = 5% dextrose pH 3.0, 55° C., 21 days
# [29] = 5% dextrose pH 3.0, 60° C., 2 days
# [30] = 5% dextrose pH 3.0, 60° C., 4 days
# [31] = 5% dextrose pH 3.0, 60° C., 6 days
# [32] = 5% dextrose pH 3.0, 60° C., 8 days
structure (smiles),measurement,setting,value
"COc1cccc2c1C(=O)c1c(O)c3c(c(O)c1C2=O)C[C@@](O)(C(=O)CO)C[C@@H]3O[C@H]1C[C@H](N)[C@H](O)[C@H](C)O1 [Doxorubicin.HCl, doxorubicin hydrochloride]",commercially meaningful shelf-life (t90% forecasts),[1]; 2 mg/ml pH 3.0 in 0.9% sodium chloride,only if the product is stored in a refrigerator
same,K × 10^3 calculated,"[1]; 0.9% NaCl pH 3.0, 4° C., Arrhenius",0.017 1/days
same,K × 10^3 calculated,"[1]; 0.9% NaCl pH 3.0, 8° C., Arrhenius",0.037 1/days
same,K × 10^3 calculated,"[1]; 0.9% NaCl pH 3.0, 15° C., Arrhenius",0.137 1/days
same,K × 10^3 calculated,[1]; [3],1.112 1/days
same,t90%,[1]; [3],94 days
same,Kobs × 10^3,"[1]; 0.9% NaCl pH 3.0, 35° C.",3.89 1/days
same,Kobs × 10^3,"[1]; 0.9% NaCl pH 3.0, 45° C.",21.61 1/days
same,Kobs × 10^3,"[1]; 0.9% NaCl pH 3.0, 55° C.",75.90 1/days
same,Kobs × 10^3,"[1]; 0.9% NaCl pH 3.0, 60° C.",164.90 1/days
same,Doxorubicin.HCl assay,[1]; [4],2.061 mg/mL
same,pH,[1]; [4],3.05
same,Doxorubicin.HCl assay,[1]; [5],2.045 mg/mL
same,pH,[1]; [5],2.98
same,Doxorubicin.HCl assay,[1]; [6],1.946 mg/mL
same,pH,[1]; [6],2.92
same,Doxorubicin.HCl assay,[1]; [7],1.932 mg/mL
same,pH,[1]; [7],2.92
same,Doxorubicin.HCl assay,[1]; [8],1.852 mg/mL
same,pH,[1]; [8],2.98
same,Doxorubicin.HCl assay,[1]; [9],2.061 mg/mL
same,pH,[1]; [9],3.05
same,Doxorubicin.HCl assay,[1]; [10],1.996 mg/mL
same,pH,[1]; [10],2.98
same,Doxorubicin.HCl assay,[1]; [11],1.724 mg/mL
same,pH,[1]; [11],2.97
same,pH,"[1]; 0.9% sodium chloride pH 3.0, 45° C., 14 days",2.98
same,Doxorubicin.HCl assay,[1]; [12],1.344 mg/mL
same,pH,[1]; [12],2.93
same,Doxorubicin.HCl assay,[1]; [13],2.061 mg/mL
same,pH,[1]; [13],3.05
same,pH,"[1]; 0.9% sodium chloride pH 3.0, 55° C., 4 days",2.90
same,pH,"[1]; 0.9% sodium chloride pH 3.0, 55° C., 8 days",2.97
same,Doxorubicin.HCl assay,[1]; [14],0.900 mg/mL
same,pH,[1]; [14],2.95
same,Doxorubicin.HCl assay,[1]; [15],2.061 mg/mL
same,pH,[1]; [15],3.05
same,Doxorubicin.HCl assay,[1]; [16],1.742 mg/mL
same,pH,[1]; [16],2.97
same,pH,"[1]; 0.9% sodium chloride pH 3.0, 60° C., 2 days",2.96
same,Doxorubicin.HCl assay,[1]; [17],1.290 mg/mL
same,pH,[1]; [17],2.98
same,pH,"[1]; 0.9% sodium chloride pH 3.0, 60° C., 4 days",2.96
same,commercially meaningful shelf-life (t90% forecasts),[2]; 2 mg/ml pH 3.0 5% dextrose solution,only if the product is stored in a refrigerator
same,t90%,"[2]; 5% dextrose pH 3.0, 27° C., Arrhenius",82 days
same,Doxorubicin.HCl assay,"[2]; 5% dextrose pH 3.0, 35° C., 0 days",2.114 mg/mL
same,Doxorubicin.HCl assay,[2]; [18],2.044 mg/mL
same,pH,[2]; [18],2.98
same,Doxorubicin.HCl assay,[2]; [19],2.034 mg/mL
same,pH,[2]; [19],2.94
same,Doxorubicin.HCl assay,[2]; [20],2.015 mg/mL
same,pH,[2]; [20],2.95
same,Doxorubicin.HCl assay,[2]; [21],1.934 mg/mL
same,pH,[2]; [21],2.90
same,Doxorubicin.HCl assay,[2]; [22],1.859 mg/mL
same,pH,[2]; [22],2.94
same,Kobs × 10^3,"[2]; 5% dextrose pH 3.0, 35° C.",4.190 1/days
same,Doxorubicin.HCl assay,"[2]; 5% dextrose pH 3.0, 45° C., 0 days",2.114 mg/mL
same,Doxorubicin.HCl assay,[2]; [23],1.940 mg/mL
same,pH,[2]; [23],2.97
same,Doxorubicin.HCl assay,[2]; [24],1.870 mg/mL
same,pH,[2]; [24],2.98
same,Doxorubicin.HCl assay,[2]; [25],1.684 mg/mL
same,pH,[2]; [25],2.95
same,pH,"[2]; 5% dextrose pH 3.0, 45° C., 17 days",2.96
same,Doxorubicin.HCl assay,[2]; [26],1.410 mg/mL
same,pH,[2]; [26],2.96
same,Kobs × 10^3,"[2]; 5% dextrose pH 3.0, 45° C.",14.55 1/days
same,Doxorubicin.HCl assay,"[2]; 5% dextrose pH 3.0, 55° C., 0 days",2.114 mg/mL
same,pH,"[2]; 5% dextrose pH 3.0, 55° C., 4 days",2.95
same,pH,"[2]; 5% dextrose pH 3.0, 55° C., 8 days",2.92
same,pH,"[2]; 5% dextrose pH 3.0, 55° C., 14 days",2.99
same,Doxorubicin.HCl assay,[2]; [27],0.957 mg/mL
same,pH,[2]; [27],2.91
same,Doxorubicin.HCl assay,[2]; [28],0.796 mg/mL
same,pH,[2]; [28],2.95
same,Kobs × 10^3,"[2]; 5% dextrose pH 3.0, 55° C.",58.11 1/days
same,Doxorubicin.HCl assay,"[2]; 5% dextrose pH 3.0, 60° C., 0 days",2.114 mg/mL
same,Doxorubicin.HCl assay,[2]; [29],1.752 mg/mL
same,pH,[2]; [29],2.96
same,Doxorubicin.HCl assay,[2]; [30],1.393 mg/mL
same,pH,[2]; [30],2.98
same,Doxorubicin.HCl assay,[2]; [31],1.176 mg/mL
same,pH,[2]; [31],2.96
same,Doxorubicin.HCl assay,[2]; [32],0.925 mg/mL
same,pH,[2]; [32],2.97
same,Kobs × 10^3,"[2]; 5% dextrose pH 3.0, 60° C.",102.6 1/days
